Measurements from PMC5775428, “Towards an experimental classification system for membrane active peptides” (Scientific Reports, 2018).
Where two headings read alike, the source gives them in different places.

Legend:
Bacillus subtilis = conditions: Bacillus subtilis; for Minimum inhibitory concentration, Average: average of triplicates
Summary of the method: (§1)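 MICs determined per CLSI M7-A10 (bacteria) and M27-A3 (yeasts) protocols, peptides tested at 0.5 to 256 μM. MIC taken as the lowest concentration with no cells seen by optical microscopy; three biological repeats with 2 technical replicates each.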

Pseudomonas aeruginosa = system: Pseudomonas aeruginosa
Summary of the method: as §1

Staphylococcus aureus = system: Staphylococcus aureus
Summary of the method: as §1

Cryptococcus neoformans = conditions: Cryptococcus neoformans; for Minimum inhibitory concentration, Average: average of triplicates
Summary of the method: as §1

[1] = system: Pseudomonas syringae pv. tabaci
Summary of the method: as §1

Escherichia coli = system: Escherichia coli
Summary of the method: as §1

Xanthomonas campestris = conditions: for Minimum inhibitory concentration, Average: average of triplicates
Summary of the method: as §1

Bacillus cereus = system: Bacillus cereus
Summary of the method: as §1

Candida albicans = conditions: Candida albicans; for Minimum inhibitory concentration, Average: average of triplicates
Summary of the method: as §1

Erwinia carotovora = system: Erwinia carotovora
Summary of the method: as §1

[2] = Pseudomonas aeruginosa, CLSI M7-A10, triplicate 1
[3] = Pseudomonas aeruginosa, average of triplicates
[4] = Pseudomonas aeruginosa, triplicate 2
[5] = Pseudomonas aeruginosa, triplicate 3
[6] = Staphylococcus aureus, CLSI M7-A10, triplicate 1
[7] = Staphylococcus aureus, average of triplicates
[8] = Staphylococcus aureus, triplicate 2
[9] = Staphylococcus aureus, triplicate 3
[10] = Pseudomonas syringae pv. tabaci, CLSI M7-A10, triplicate 1
[11] = Pseudomonas syringae pv. tabaci, average of triplicates
[12] = Pseudomonas syringae pv. tabaci, triplicate 2
[13] = Pseudomonas syringae pv. tabaci, triplicate 3
[14] = Escherichia coli, CLSI M7-A10, triplicate 1
[15] = Escherichia coli, average of triplicates
[16] = Bacillus cereus, CLSI M7-A10, triplicate 1
[17] = Bacillus cereus, average of triplicates
[18] = CLSI M27-A3, 0.5 to 256 μM tested, triplicate 1, also published in ref 7
[19] = Erwinia carotovora, CLSI M7-A10, triplicate 1
[20] = Erwinia carotovora, average of triplicates
[21] = Erwinia carotovora, triplicate 2
[22] = Erwinia carotovora, triplicate 3

| Sequence | Minimum inhibitory concentration (Bacillus subtilis; CLSI M7-A10, triplicate 1) [µM] | Minimum inhibitory concentration, Average (Bacillus subtilis) [µM] | Minimum inhibitory concentration (Bacillus subtilis; triplicate 2) [µM] | Minimum inhibitory concentration (Bacillus subtilis; triplicate 3) [µM] | Minimum inhibitory concentration (Pseudomonas aeruginosa; [2]) [µM] | Minimum inhibitory concentration, Average (Pseudomonas aeruginosa; [3]) [µM] | Minimum inhibitory concentration (Pseudomonas aeruginosa; [4]) [µM] | Minimum inhibitory concentration (Pseudomonas aeruginosa; [5]) [µM] | Minimum inhibitory concentration (Staphylococcus aureus; [6]) [µM] | Minimum inhibitory concentration (Cryptococcus neoformans; CLSI M27-A3, triplicate 1) [µM] | Minimum inhibitory concentration, Average (Cryptococcus neoformans) [µM] | Minimum inhibitory concentration (Cryptococcus neoformans; triplicate 2) [µM] | Minimum inhibitory concentration (Cryptococcus neoformans; triplicate 3) [µM] | Minimum inhibitory concentration (Xanthomonas campestris; CLSI M7-A10, triplicate 1) [µM] | Minimum inhibitory concentration, Average (Xanthomonas campestris) [µM] | Minimum inhibitory concentration (Xanthomonas campestris; triplicate 2) [µM] | Minimum inhibitory concentration (Xanthomonas campestris; triplicate 3) [µM] | Minimum inhibitory concentration, Average (Candida albicans) [µM] | Minimum inhibitory concentration (Candida albicans; triplicate 2) [µM] | Minimum inhibitory concentration (Candida albicans; triplicate 3) [µM] | other results |
| --- | --- | --- | --- | --- | --- | --- | --- | --- | --- | --- | --- | --- | --- | --- | --- | --- | --- | --- | --- | --- | --- |
| GSLHGFMYKYLKTLVLRLY [Zm01] | 8 | 8.0 | 8 | 8 | 16 | 16.0 | 16 | 16 | 16 | 4 | 4.0 | 4 | 4 | 16 | 16.0 | 16 | 16 | 6.7 | 8 | 8 | Minimum inhibitory concentration, Average (Staphylococcus aureus; [7]): 16.0 µM; Minimum inhibitory concentration (Staphylococcus aureus; [8]): 16 µM; Minimum inhibitory concentration (Staphylococcus aureus; [9]): 16 µM; Minimum inhibitory concentration [1, 10]: 32 µM; Minimum inhibitory concentration, Average [1, 11]: 32.0 µM; Minimum inhibitory concentration [1, 12]: 32 µM; Minimum inhibitory concentration [1, 13]: 32 µM; Minimum inhibitory concentration (Escherichia coli; [14]): 8 µM; Minimum inhibitory concentration, Average (Escherichia coli; [15]): 13.3 µM; Minimum inhibitory concentration (Escherichia coli; Escherichia coli, triplicate 2): 16 µM; Minimum inhibitory concentration (Escherichia coli; Escherichia coli, triplicate 3): 16 µM; Minimum inhibitory concentration (Bacillus cereus; [16]): 64 µM; Minimum inhibitory concentration, Average (Bacillus cereus; [17]): 44.7 µM; Minimum inhibitory concentration (Bacillus cereus; Bacillus cereus, triplicate 2): 64 µM; Minimum inhibitory concentration (Candida albicans; [18]): 4 µM; Minimum inhibitory concentration (Erwinia carotovora; [19]): 16 µM; Minimum inhibitory concentration, Average (Erwinia carotovora; [20]): 16.0 µM; Minimum inhibitory concentration (Erwinia carotovora; [21]): 16 µM; Minimum inhibitory concentration (Erwinia carotovora; [22]): 16 µM |
| GSLHGFMYRYLKNMVLNLF [Cs01] | 8 | 8.0 | 8 | 8 | 32 | 32.0 | 32 | 32 | 4 | 8 | 8.0 | 8 | 8 | 64 | 64.0 | 64 | 64 | 2.7 | 2 | 4 | Minimum inhibitory concentration, Average (Staphylococcus aureus; [7]): 4.0 µM; Minimum inhibitory concentration (Staphylococcus aureus; [8]): 4 µM; Minimum inhibitory concentration (Staphylococcus aureus; [9]): 4 µM; Minimum inhibitory concentration [1, 10]: 16 µM; Minimum inhibitory concentration, Average [1, 11]: 16.0 µM; Minimum inhibitory concentration [1, 12]: 16 µM; Minimum inhibitory concentration [1, 13]: 16 µM; Minimum inhibitory concentration (Escherichia coli; [14]): 32 µM; Minimum inhibitory concentration, Average (Escherichia coli; [15]): 32.0 µM; Minimum inhibitory concentration (Escherichia coli; Escherichia coli, triplicate 2): 32 µM; Minimum inhibitory concentration (Escherichia coli; Escherichia coli, triplicate 3): 32 µM; Minimum inhibitory concentration (Bacillus cereus; [16]): 64 µM; Minimum inhibitory concentration, Average (Bacillus cereus; [17]): 64.0 µM; Minimum inhibitory concentration (Bacillus cereus; Bacillus cereus, triplicate 2): 64 µM; Minimum inhibitory concentration (Bacillus cereus; Bacillus cereus, triplicate 3): 64 µM; Minimum inhibitory concentration (Candida albicans; [18]): 2 µM; Minimum inhibitory concentration (Erwinia carotovora; [19]): 128 µM; Minimum inhibitory concentration, Average (Erwinia carotovora; [20]): 128.0 µM; Minimum inhibitory concentration (Erwinia carotovora; [21]): 128 µM; Minimum inhibitory concentration (Erwinia carotovora; [22]): 128 µM |
| IKLRNVLKYLFRIDVIKEDIL [Tc03] | 16 | 16.0 | 16 | 16 | 512 | 512.0 | 512 | 512 | 512 | 512 | 512.0 | 512 | 512 | 64 | 64.0 | 64 | 64 | 512.0 | 512 | 512 | Minimum inhibitory concentration, Average (Staphylococcus aureus; [7]): 512.0 µM; Minimum inhibitory concentration (Staphylococcus aureus; [8]): 512 µM; Minimum inhibitory concentration (Staphylococcus aureus; [9]): 512 µM; Minimum inhibitory concentration [1, 10]: 32 µM; Minimum inhibitory concentration, Average [1, 11]: 32.0 µM; Minimum inhibitory concentration [1, 12]: 32 µM; Minimum inhibitory concentration [1, 13]: 32 µM; Minimum inhibitory concentration (Escherichia coli; [14]): 64 µM; Minimum inhibitory concentration, Average (Escherichia coli; [15]): 64.0 µM; Minimum inhibitory concentration (Escherichia coli; Escherichia coli, triplicate 2): 64 µM; Minimum inhibitory concentration (Escherichia coli; Escherichia coli, triplicate 3): 64 µM; Minimum inhibitory concentration (Bacillus cereus; [16]): 128 µM; Minimum inhibitory concentration, Average (Bacillus cereus; [17]): 128.0 µM; Minimum inhibitory concentration (Bacillus cereus; Bacillus cereus, triplicate 2): 128 µM; Minimum inhibitory concentration (Bacillus cereus; Bacillus cereus, triplicate 3): 128 µM; Minimum inhibitory concentration (Erwinia carotovora; [19]): 32 µM; Minimum inhibitory concentration, Average (Erwinia carotovora; [20]): 32.0 µM; Minimum inhibitory concentration (Erwinia carotovora; [21]): 32 µM; Minimum inhibitory concentration (Erwinia carotovora; [22]): 32 µM |
| IVNHLVKLFDKGLNSIVNLR [Tc05] | 64 | 64.0 | 64 | 64 | – | – | – | – | – | 128 | 128.0 | 128 | 128 | 512 | 512.0 | 512 | 512 | 128.0 | 128 | 128 | Minimum inhibitory concentration (Pseudomonas aeruginosa): 512 µM; Minimum inhibitory concentration, Average (Pseudomonas aeruginosa): 512.0 µM; Minimum inhibitory concentration (Staphylococcus aureus): 512 µM; Minimum inhibitory concentration, Average (Staphylococcus aureus): 512.0 µM; Minimum inhibitory concentration [1]: 512 µM; Minimum inhibitory concentration, Average [1]: 512.0 µM; Minimum inhibitory concentration (Escherichia coli): 512 µM; Minimum inhibitory concentration, Average (Escherichia coli): 512.0 µM; Minimum inhibitory concentration (Bacillus cereus): 512 µM; Minimum inhibitory concentration, Average (Bacillus cereus): 512.0 µM; Minimum inhibitory concentration (Candida albicans; [18]): 128 µM; Minimum inhibitory concentration (Erwinia carotovora): 512 µM; Minimum inhibitory concentration, Average (Erwinia carotovora): 512.0 µM |
| KVLSKVHTLLKAVLAL [At02] | 1 | 1.0 | 1 | 1 | 4 | 5.3 | 4 | 8 | 4 | 4 | 4.0 | 4 | 4 | 1 | 1.0 | 1 | 1 | 8.0 | 8 | 8 | Minimum inhibitory concentration, Average (Staphylococcus aureus; [7]): 4.0 µM; Minimum inhibitory concentration (Staphylococcus aureus; [8]): 4 µM; Minimum inhibitory concentration (Staphylococcus aureus; [9]): 4 µM; Minimum inhibitory concentration [1, 10]: 4 µM; Minimum inhibitory concentration, Average [1, 11]: 4.0 µM; Minimum inhibitory concentration [1, 12]: 4 µM; Minimum inhibitory concentration [1, 13]: 4 µM; Minimum inhibitory concentration (Escherichia coli; [14]): 2 µM; Minimum inhibitory concentration, Average (Escherichia coli; [15]): 2.0 µM; Minimum inhibitory concentration (Escherichia coli; Escherichia coli, triplicate 2): 2 µM; Minimum inhibitory concentration (Escherichia coli; Escherichia coli, triplicate 3): 2 µM; Minimum inhibitory concentration (Bacillus cereus; [16]): 2 µM; Minimum inhibitory concentration, Average (Bacillus cereus; [17]): 3.3 µM; Minimum inhibitory concentration (Bacillus cereus; Bacillus cereus, triplicate 2): 4 µM; Minimum inhibitory concentration (Bacillus cereus; Bacillus cereus, triplicate 3): 4 µM; Minimum inhibitory concentration (Candida albicans; [18]): 8 µM; Minimum inhibitory concentration (Erwinia carotovora; [19]): 1 µM; Minimum inhibitory concentration, Average (Erwinia carotovora; [20]): 1.0 µM; Minimum inhibitory concentration (Erwinia carotovora; [21]): 1 µM; Minimum inhibitory concentration (Erwinia carotovora; [22]): 1 µM |
